Tested on: HT-29 cells
Experiment: HT29 cells 0FBS assay in vitro: TNF-α/SMAC mimetic/zVAD-FMK induced necroptosis, CellTiter-Glo cell viability (RIP1 inhibitory activity)
Format: cell-based
Details: Homo sapiens, FBS free medium, TNF-α (10 ng/ml) + SMAC mimetic (6 uM) + zVAD-FMK (10 μM), 20 hours, geometric mean EC50
How it was run: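 Luminescent ATP read-out (CellTiter-Glo) gave viability of HT-29 cells after 20 h at 37° C in serum-free medium containing compound and a necroptosis cocktail of 10 ng/ml TNF-α, 6 uM SMAC mimetic and 10 μM zVAD-FMK. EC50s are geometric means of 10-point curves run in duplicate.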

Compound | EC50 [µM]
Cc1cc[nH]c(=O)c1-c1cc(OC2CN(C(=O)N3N=CC[C@H]3c3cc(F)cc(F)c3)C2)c(F)cn1 [Compound 166, (S)-4-((1-(5-(3,5-difluorophenyl)-4,5-dihydro-11H-pyrazole-1-carbonyl)azetidin-3-yl)oxy)-5-fluoro-4′-methyl-[2,3′-bipyridin]-2′(1′H)-one] | 0.1 to 1
Cc1c(-c2cc(OC3CN(C(=O)N4N=CC[C@H]4c4cc(F)cc(F)c4F)C3)c(F)cn2)nn(C)c1C(N)=O [Compound 126, 3-(5-fluoro-4-((1-(5-(2,3,5-trifluorophenyl)-4,5-dihydro-1H-pyrazole-1-carbonyl)azetidin-3-yl)oxy)pyridin-2-yl)-1,4-dimethyl-1H-pyrazole-5-carboxamide] | 0.0001 to 0.1
Cc1nc([C@H]2CC=NN2C(=O)N2CC(Oc3cc(-c4c(C)cnn4C)ncc3F)C2)cs1 [Compound 121, (R)-(3-((2-(1,4-dimethyl-1H-pyrazol-5-yl)-5-fluoropyridin-4-yl)oxy)azetidin-1-yl)(5-(2-methylthiazol-4-yl)-4,5-dihydro-1H-pyrazol-1-yl)methanone] | 1 to 10
Cc1nn(-c2cc(OC3CN(C(=O)N4N=CC[C@H]4c4cc(F)cc(Cl)c4)C3)c(F)cn2)c(C)c1C(N)=O [Compound 133, (S)-1-(4-((1-(5-(3-chloro-5-fluorophenyl)-4,5-dihydro-1H-pyrazole-1-carbonyl)azetidin-3-yl)oxy)-5-fluoropyridin-2-yl)-3,5-dimethyl-1H-pyrazole-4-carboxamide] | 0.0001 to 0.1
Cc1nn(-c2cc(OC3CN(C(=O)N4N=CC[C@H]4c4ccccc4)C3)c(F)cn2)c(C)c1C(=O)O [Compound 84, (S)-1-(5-fluoro-4-((1-(5-phenyl-4,5-dihydro-1H-pyrazole-1-carbonyl)azetidin-3-yl)oxy)pyridin-2-yl)-3,5-dimethyl-1H-pyrazole-4-carboxylic acid] | 0.0001 to 0.1
Cc1noc(C)c1-c1ncc(F)c(OC2CN(C(=O)N3N=CC[C@H]3c3cc(F)cc(C#N)c3)C2)n1 [Compound 3, (S)-3-(1-(3-((2-(3,5-dimethylisoxazol-4-yl)-5-fluoropyrimidin-4-yl)oxy)azetidine-1-carbonyl)-4,5-dihydro-1H-pyrazol-5-yl)-5-fluorobenzonitrile] | 0.0001 to 0.1
Cc1cnn(C)c1-c1cc(OC2CN(C(=O)N3N=CC[C@H]3c3cc(F)cc(C#N)c3)C2)c(F)cn1 [Compound 11, (S)-3-(1-(3-((2-(1,4-dimethyl-1H-pyrazol-5-yl)-5-fluoropyridin-4-yl)oxy)azetidine-1-carbonyl)-4,5-dihydro-1H-pyrazol-5-yl)-5-fluorobenzonitrile] | 0.0001 to 0.1
Cc1c(C(N)=O)nn(C)c1-c1ccc(F)c(OC2CN(C(=O)N3N=CC[C@H]3c3cc(F)cc(C#N)c3)C2)n1 [Compound 59, (S)-5-(6-((1-(5-(3-cyano-5-fluorophenyl)-4,5-dihydro-1H-pyrazole-1-carbonyl)azetidin-3-yl)oxy)-5-fluoropyridin-2-yl)-1,4-dimethyl-1H-pyrazole-3-carboxamide] | 0.0001 to 0.1
Cn1nccc1-c1ncc(F)c(OC2CN(C(=O)N3N=CC[C@H]3c3cncc(F)c3)C2)n1 [Compound 2, (S)-(3-((5-fluoro-2-(1-methyl-1H-pyrazol-5-yl)pyrimidin-4-yl)oxy)azetidin-1-yl)(5-(5-fluoropyridin-3-yl)-4,5-dihydro-1H-pyrazol-1-yl)methanone] | 0.0001 to 0.1
Cc1cnn(C)c1-c1ncc(F)c(OC2CN(C(=O)N3N=CC[C@H]3c3cncc(F)c3)C2)n1 [Compound 24, (S)-(3-((2-(1,4-dimethyl-1H-pyrazol-5-yl)-5-fluoropyrimidin-4-yl)oxy)azetidin-1-yl)(5-(5-fluoropyridin-3-yl)-4,5-dihydro-1H-pyrazol-1-yl)methanone] | 0.0001 to 0.1
CNC(=O)c1c(C)nn(-c2cc(OC3CN(C(=O)N4N=CC[C@H]4c4cccc(F)c4)C3)c(F)cn2)c1C [Compound 79, (S)-1-(5-fluoro-4-((1-(5-(3-fluorophenyl)-4,5-dihydro-1H-pyrazole-1-carbonyl)azetidin-3-yl)oxy)pyridin-2-yl)-N,3,5-trimethyl-1H-pyrazole-4-carboxamide] | 0.0001 to 0.1
Cc1cnn(C)c1-c1cc(OC2CN(C(=O)N3N=CCC3c3nccs3)C2)c(F)cn1 (stereo not drawn) [Compound 92, (3-((2-(1,4-dimethyl-1H-pyrazol-5-yl)-5-fluoropyridin-4-yl)oxy)azetidin-1-yl)(5-(thiazol-2-yl)-4,5-dihydro-1H-pyrazol-1-yl)methanone] | 0.0001 to 0.1
Cc1csc(C2CC=NN2C(=O)N2CC(Oc3cc(-c4c(C)cnn4C)ncc3F)C2)n1 (stereo not drawn) [Compound 97, (3-((2-(1,4-dimethyl-1H-pyrazol-5-yl)-5-fluoropyridin-4-yl)oxy)azetidin-1-yl)(5-(4-methylthiazol-2-yl)-4,5-dihydro-1H-pyrazol-1-yl)methanone] | 0.1 to 1
Cc1c(-c2cc(OC3CN(C(=O)N4N=CCC4c4cc(F)cc(F)c4F)C3)c(F)cn2)nn(C)c1C(N)=O (stereo not drawn) [Compound 110, 3-(5-fluoro-4-((1-(5-(2,3,5-trifluorophenyl)-4,5-dihydro-1H-pyrazole-1-carbonyl)azetidin-3-yl)oxy)pyridin-2-yl)-1,4-dimethyl-1H-pyrazole-5-carboxamide] | 0.0001 to 0.1
Cn1nc(N)cc1-c1cc(OC2CN(C(=O)N3N=CC[C@H]3c3cc(F)cc(C#N)c3)C2)c(F)cn1 [Compound 35, (S)-3-(1-(3-((2-(3-amino-1-methyl-1H-pyrazol-5-yl)-5-fluoropyridin-4-yl)oxy)azetidine-1-carbonyl)-4,5-dihydro-1H-pyrazol-5-yl)-5-fluorobenzonitrile] | 0.0001 to 0.1
Cc1nn(-c2cc(OC3CN(C(=O)N4N=CC[C@H]4c4ccccc4)C3)c(F)cn2)c(C)c1C(=O)NCCO [Compound 74, (S)-1-(5-fluoro-4-((1-(5-phenyl-4,5-dihydro-1H-pyrazole-1-carbonyl)azetidin-3-yl)oxy)pyridin-2-yl)-N-(2-hydroxyethyl)-3,5-dimethyl-1H-pyrazole-4-carboxamide] | 0.0001 to 0.1
CCn1nccc1-c1cc(OC2CN(C(=O)N3N=CC[C@H]3c3cncc(F)c3)C2)c(F)cn1 [Compound 28, (S)-(3-((2-(1-ethyl-1H-pyrazol-5-yl)-5-fluoropyridin-4-yl)oxy)azetidin-1-yl)(5-(5-fluoropyridin-3-yl)-4,5-dihydro-1H-pyrazol-1-yl)methanone] | 0.0001 to 0.1
Cn1ncc(C#N)c1-c1ccc(F)c(OC2CN(C(=O)N3N=CC[C@H]3c3cncc(F)c3)C2)n1 [Compound 34, (S)-5-(5-fluoro-6-((1-(5-(5-fluoropyridin-3-yl)-4,5-dihydro-1H-pyrazole-1-carbonyl)azetidin-3-yl)oxy)pyridin-2-yl)-1-methyl-1H-pyrazole-4-carbonitrile] | 0.0001 to 0.1
Cc1nn(C)c(C)c1-c1cc(OC2CN(C(=O)N3N=CC[C@H]3c3cc(F)cc(C#N)c3)C2)c(F)cn1 [Compound 47, (S)-3-fluoro-5-(1-(3-((5-fluoro-2-(1,3,5-trimethyl-1H-pyrazol-4-yl)pyridin-4-yl)oxy)azetidine-1-carbonyl)-4,5-dihydro-1H-pyrazol-5-yl)benzonitrile] | 0.0001 to 0.1
Cc1nc(C2CC=NN2C(=O)N2CC(Oc3nc(-c4c(C)cnn4C)c(F)cc3F)C2)cs1 (stereo not drawn) [Compound 122, (3-((6-(1,4-dimethyl-1H-pyrazol-5-yl)-3,5-difluoropyridin-2-yl)oxy)azetidin-1-yl)(5-(2-methylthiazol-4-yl)-4,5-dihydro-11H-pyrazol-1-yl)methanone] | 0.0001 to 0.1
Cc1cnn(C)c1-c1ccc(F)c(OC2CN(C(=O)N3N=CC[C@H]3c3cc(F)cc(C#N)c3)C2)n1 [Compound 53, (S)-3-(1-(3-((6-(1,4-dimethyl-1H-pyrazol-5-yl)-3-fluoropyridin-2-yl)oxy)azetidine-1-carbonyl)-4,5-dihydro-1H-pyrazol-5-yl)-5-fluorobenzonitrile] | 0.0001 to 0.1
Cn1nccc1-c1csc(OC2CN(C(=O)N3N=CC[C@H]3c3cc(F)cc(F)c3)C2)n1 [Compound 147, (S)-(5-(3,5-difluorophenyl)-4,5-dihydro-1H-pyrazol-1-yl)(3-((4-(1-methyl-1H-pyrazol-5-yl)thiazol-2-yl)oxy)azetidin-1-yl)methanone] | 0.0001 to 0.1
Cc1nn(-c2cc(OC3CN(C(=O)N4N=CC[C@H]4c4cc(F)cc(Cl)c4)C3)c(F)cn2)c(C)c1C(=O)O [Compound 140, (S)-1-(4-((1-(5-(3-chloro-5-fluorophenyl)-4,5-dihydro-1H-pyrazole-1-carbonyl)azetidin-3-yl)oxy)-5-fluoropyridin-2-yl)-3,5-dimethyl-1H-pyrazole-4-carboxylic acid] | 0.0001 to 0.1
Cn1ncc(C#N)c1-c1ncc(F)c(OC2CN(C(=O)N3N=CC[C@H]3c3cc(F)cc(C#N)c3)C2)n1 [Compound 8, (S)-5-(4-((1-(5-(3-cyano-5-fluorophenyl)-4,5-dihydro-1H-pyrazole-1-carbonyl)azetidin-3-yl)oxy)-5-fluoropyrimidin-2-yl)-1-methyl-1H-pyrazole-4-carbonitrile] | 0.0001 to 0.1
Cn1nccc1-c1cnc(OC2CN(C(=O)N3N=CC[C@H]3c3cc(F)cc(F)c3)C2)s1 [Compound 153, (S)-(5-(3,5-difluorophenyl)-4,5-dihydro-1H-pyrazol-1-yl)(3-((5-(1-methyl-1H-pyrazol-5-yl)thiazol-2-yl)oxy)azetidin-1-yl)methanone] | 0.0001 to 0.1
Cc1cnc(C2CC=NN2C(=O)N2CC(Oc3cc(-c4c(C)cnn4C)ncc3F)C2)s1 (stereo not drawn) [Compound 94, (3-((2-(1,4-dimethyl-1H-pyrazol-5-yl)-5-fluoropyridin-4-yl)oxy)azetidin-1-yl)(5-(5-methylthiazol-2-yl)-4,5-dihydro-1H-pyrazol-1-yl)methanone] | 0.0001 to 0.1
Cc1nn(-c2cc(OC3CN(C(=O)N4N=CC[C@H]4c4cc(F)cc(C#N)c4)C3)c(F)cn2)c(C)c1C(=O)NC1COC1 [Compound 85, (S)-1-(4-((1-(5-(3-cyano-5-fluorophenyl)-4,5-dihydro-1H-pyrazole-1-carbonyl)azetidin-3-yl)oxy)-5-fluoropyridin-2-yl)-3,5-dimethyl-N-(oxetan-3-yl)-1H-pyrazole-4-carboxamide] | 0.0001 to 0.1
